In patent publication US9241976B2, “Use of HDL-related molecules to treat and prevent proinflammatory conditions” (THE REGENTS OF THE UNIVERSITY OF CALIFORNIA, priority 2011, dated 2016):

Key:
[1] = system: mouse ovarian cancer cells (ID-8 cells); conditions: reference (17); cited from earlier work
[2] = system: HDL anti-inflammatory properties; conditions: 0.43 mg/kg daily, intravenous infusion 7 days or subcutaneously 28 days, patients with coronary heart disease (Watson and colleagues); cited from earlier work
[3] = system: CT26 cells; test: Pulmonary metastasis in vivo: CT26 lung tumors in BALB/c mice; design: species or system mouse; conditions: CT26 via tail vein
Experimental: BALB/c mice were intravenously injected with 2×10^4 CT26 cells in 100 μL of PBS via tail vein injection and the mice were treated with bHDL at 10 mg/kg/day administered SQ for 3 weeks; or treated with bHDL at 100 mg/kg/day administered in a chow diet for 3 weeks. After 3 weeks treatment, the mice were sacrificed; lungs were harvested, weighed and fixed with Bouin's solution (Sigma). Tumor nodules on the lung surface were counted.
BALB/c mice were intravenously injected with 2×10^4 CT26 cells in […] of PBS via tail vein injection and the mice were treated with L-4F or sc-4F at 10 mg/kg/d administered subcutaneously for 3 weeks, or treated with sc-4F or L-4F or G* peptide at 100 mg/kg/d administered in a chow diet for 3 weeks. After 3 weeks treatment, the mice were sacrificed; lungs were harvested, weighed, and fixed with Bouin solution (Sigma). Tumor nodules on the lung surface were counted.

[4] = system: CT26 cells; test: LPA-induced viability of CT26 cells; format: cell-based, mouse; conditions: L-4F 10 mg/mL with LPA 5, 10, 48 hours
Experimental: FIGS. 17A-17B. HDL mimetic, L-4F inhibits LPA induced viability of CT26 cells and reduces LPA levels in cell culture medium. FIG. 17A, CT26 cells were cultured as described in Example 5 and incubated with either L-4F at 10 mg/mL or LPA at a concentration 5, 10, […], or cells were treated with both L-4F and LPA for 48 hours. All experiments were conducted in triplicate and each assay was carried out in quadruplicates. Data are represented as the mean±SD of the percent of control cells. FIG. 17B, LPA levels were measured in the cell culture medium after 48 hours of treatment.
The peptides were dissolved in H2O.

[5] = system: CD31; test: CD31 immunohistochemistry of lung surface tumors; format: in vivo, mouse; conditions: 100 mg/kg/d in chow diet for 3 weeks, vs control mice
Experimental: Tumor tissues from the lung surface were fixed and embedded with paraffin, sectioned at […] thickness. Sections were deparaffinized with xylene, rehydrated with 100%, 90%, 70%, and 50% ethanol, treated with proteinase K at […] for 30 minutes, and treated with 3% H2O2 for 30 minutes at room temperature to inhibit endogenous peroxidase, blocked with 10% normal goat serum and 4% bovine serum albumin prepared in PBS for 3 hours, and then incubated with 1:50 rat antimouse monoclonal CD31 antibody overnight at 4° C. The sections were incubated with corresponding biotinylated secondary antibody for 1 hour, followed by incubation with Vectastain ABC Elite reagents.

[6] = system: NIH3T3 cells; test: NIH3T3 cell viability, MTS assay; format: cell-based; conditions: 10 μg/mL, 48 hours
Experimental: CT26 and NIH3T3 cells (2,000 cells per well) were first cultured in complete medium in 96-well culture plates, and 24 hours later the medium was replaced with serum-free medium. […] Cells were incubated for an additional 48 hours and assayed for viability using MTS assays kit (Promega) according to the manufacturer's protocol.

[7] = system: CD31; test: ID8 flank tumor model, CD31 staining of vessels; format: in vivo, mouse; conditions: C57BL/6J mice, 10 mg/kg s.c. daily for 3 weeks, vs control group
Experimental: Nine-week-old C57BL/6J female mice were given a 0.5-ml subcutaneous injection of 5×10^6 ID8 cells prepared as a single cell suspension in PBS mixed with an equal volume of cold Matrigel (BD Biosciences, San Jose, Calif.). After 2 weeks, mice started to receive scrambled 4F peptide (sc-4F) or L-4F (10 mg/kg) by subcutaneous injection at a site distant from the site where the ID8 cells were injected daily for 3 weeks. After 3 weeks, the mice were sacrificed for tumor collection and further analyses.
Frozen tumor tissues were sectioned at a thickness of 5 μm and fixed with cold acetone for 10 min at −20° C. The sections were blocked with 10% normal goat serum and 4% bovine serum albumin prepared in PBS for 3 h and immediately incubated with rabbit anti-mouse polyclonal HIF-1α antibody (1:200) (Abcam Inc.) or rat anti-mouse monoclonal CD31 antibody (1:25) (Abcam Inc.) overnight at 4° C. The sections were then incubated with corresponding biotinylated secondary antibodies (Vector Laboratories) for 30 min at room temperature followed by incubation with Vectastain ABC Elite reagents (Vector Laboratories) to visualize the staining. Finally, sections were lightly counterstained with hematoxylin, dehydrated, and coverslipped with Vecta-Mount solution (Vector Laboratories).

[8] = system: p70s6 kinase; test: Insulin-stimulated phosphorylation of S6 kinase in OV2008 cells, Western blot; format: cell-based, human; conditions: 10 μg/ml, insulin 200 nM
Experimental: FIGS. 10A-10B. Effect of L-4F on the insulin-stimulated activation of downstream signaling molecules in OV2008 cells. After an overnight starvation, OV2008 cells were treated with L-4F (10 μg/ml) for 1 h, and insulin was added at a final concentration of 200 nM. Cell lysates were collected at various time points and subjected to Western blot analysis. FIG. 10A, L-4F inhibits insulin-stimulated phosphorylation of p70s6 kinase and subsequent HIF-1α expression in OV2008 cells. FIG. 10B, effect of L-4F on insulinstimulated phosphorylation of ERK1/2 and Akt in OV2008 cells.
Western blot analyses were performed as described previously (Gao et al., 2011). In brief, cell lysates were collected in a lysis buffer containing 0.1 MNaCl, 5 mM EDTA, 50 μM sodium orthovanadate, 1% Triton X-100, and protease inhibitor tablet (Roche Diagnostics, Indianapolis, Ind.) in 50 mM Tris buffer, pH 7.5, loaded onto 4 to 12% Bis-Tris gel (Invitrogen), transferred to polyvinylidene difluoride membrane, and incubated with the appropriate antibodies. […]

[9] = system: lysophosphatidic acid (LPA); test: Plasma LPA levels in treated mice; format: in vivo, mouse; conditions: for plasma LPA levels: vs control mice
Experimental: LPA (20:4) was purchased from Avanti Polar Lipids. LPA levels were determined as described previously (Murph et al., 2007, Methods Enymol 433:1-25).
LPA (20:4) was purchased from Avanti Polar Lipids. LPA levels were determined as described previously (19).

[10] = 10 mg/kg/d subcutaneously for 3 weeks
[11] = 100 mg/kg/d in chow diet for 3 weeks

**Q.** With “Ac-DWFKAFYDKVAEKFKEAF-NH2 [L-4F, Ac-D-W-F-K-A-F-Y-D-K-V-A-E-K-F-K-E-A-F-NH2]” as the substance, how does the viability and proliferation [1] read?
**A.** reduced

**Q.** And the HDL anti-inflammatory properties [2]?
**A.** did not achieve any improvement

**Q.** And the lung weights [3, 10]?
**A.** 225 mg

**Q.** And the “tumor numbers counted on the lung surface” value [3, 10]?
**A.** 18

**Q.** And the lung weights [3, 11]?
**A.** 238 mg

**Q.** And the “tumor numbers on the lung surface” value [3, 11]?
**A.** 12

**Q.** And the LPA-induced viability [4]?
**A.** significantly reduced

**Q.** And the “CD31 expression in tumors” value [5]?
**A.** significant decrease

**Q.** And the NIH3T3 cell viability [6]?
**A.** not affected

**Q.** What about the “number of vessels in tumors” value [7] of the same substance?
**A.** reduction in the number of vessels

**Q.** And the “insulin-stimulated phosphorylation of S6 kinase” value [8]?
**A.** prevented phosphorylation

**Q.** What about the “plasma LPA levels” value ([9]; BALB/c lung tumor mice, 100 mg/kg/d in chow for 3 weeks) of the same substance?
**A.** significantly reduced

**Q.** And the “plasma LPA levels” value ([9]; C57BL/6J-APC^min/+ mice, 100 mg/kg/d in mouse chow for 8 weeks)?
**A.** significantly reduced

**Q.** What about the “decrease of plasma LPA levels compared with control mice” value ([9]; C57BL/6J-APC^min/+ mice, chow, 8 weeks) of the same substance?
**A.** > 50%
